pIC50: −log10 of the molar value.
What follows are compounds tested against T1, HCV polymerase (Hepatitis C virus genotype 1b, UniProt P26663) (assay: HCV polymerase primer/template-directed transcription assay (32P-GTP incorporation, filter binding)). Conditions: @ 20 uM compound; given where IC50 was impractical to calculate; read-out: percent inhibition.
T1 construct: 2.5 pmoles (0.15 μg) HCV polymerase protein in a final volume of 75 μL
T1 sequence (P26663 2420-3010): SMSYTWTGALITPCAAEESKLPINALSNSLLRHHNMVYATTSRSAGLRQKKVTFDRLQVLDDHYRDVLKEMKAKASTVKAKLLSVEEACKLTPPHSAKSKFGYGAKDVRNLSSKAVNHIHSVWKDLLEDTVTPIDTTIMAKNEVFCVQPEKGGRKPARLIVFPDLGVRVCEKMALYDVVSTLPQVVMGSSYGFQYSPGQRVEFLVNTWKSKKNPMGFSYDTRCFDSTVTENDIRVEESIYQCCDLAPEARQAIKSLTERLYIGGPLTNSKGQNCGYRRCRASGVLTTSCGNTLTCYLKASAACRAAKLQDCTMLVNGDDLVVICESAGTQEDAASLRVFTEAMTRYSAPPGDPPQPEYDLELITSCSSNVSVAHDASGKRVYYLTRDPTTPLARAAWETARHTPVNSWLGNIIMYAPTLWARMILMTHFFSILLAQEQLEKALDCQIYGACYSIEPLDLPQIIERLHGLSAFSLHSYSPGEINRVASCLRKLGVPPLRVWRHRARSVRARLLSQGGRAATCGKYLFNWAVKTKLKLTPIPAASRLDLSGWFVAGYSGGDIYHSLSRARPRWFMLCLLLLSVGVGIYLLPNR
Type: biochemical
Procedure, shortened: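 IC50s come from triplicate cpm, refit with an enzyme-concentration (30 nM) correction when under 200 nM. Reactions ran 30 min at 30° C in Tris pH 7.2 with MgCl2, 1 μM GTP spiked with α-32P-GTP, biotin-dG12 primer and poly(rC)300 template, with 1% DMSO. Incorporated label was collected on DE filtermats and counted.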
Work on `COc1ccc(CCC2(C3CCCC3)CC(OCc3cccnc3)=CC(=O)O2)cc1Cl` (stereo not shown) [G(1), 6-[2-(3-chloro-4-methoxyphenyl)ethyl]-6-cyclopentyl-4-(pyridin-3-ylmethoxy)-5,6-dihydro-2H-pyran-2-one] yielded an inhibition at 20 µM of 16%.

Same assay, conditions: recombinant HCV polymerase; 30 minutes at 30° C.; concentration giving 50% inhibition of polymerase-directed transcription; read-out: IC50
Work on `CCc1cccc(CCC2(C3CCCC3)CC(=O)CC(=O)O2)c1` (single isomer, unassigned) [J(6), 6-Cyclopentyl-6-[2-(3-ethyl-phenyl)-ethyl]-dihydro-pyran-2,4-dione] yielded a pIC50 of 5.92.
`CCc1cc(CCC2(C3CCCC3)CC(O)=C(Cc3nc4ncc(C)cn4n3)C(=O)O2)c2c(c1O)CCO2` (stereo not shown) [A(182), 6-Cyclopentyl-6-[2-(5-ethyl-4-hydroxy-2,3-dihydro-benzofuran-7-yl)-ethyl]-4-hydroxy-3-(6-methyl-[1,2,4]triazolo[1,5-a]pyrimidin-2-ylmethyl)-5,6-dihydro-pyran-2-one] showed a pIC50 of 8.40.
Compound `COc1cc(OC)c(CCC2(C3CCCC3)CC(O)=C(Sc3nc4nc(C)ccn4n3)C(=O)O2)cc1Cl` (stereo not shown) [C(82), 6-[2-(5-chloro-2,4-dimethoxyphenyl)ethyl]-6-cyclopentyl-4-hydroxy-3-[(5-methyl[1,2,4]triazolo[1,5-a]pyrimidin-2-yl)thio]-5,6-dihydro-2H-pyran-2-one] has a pIC50 of 7.57.
With `CC(C)c1ccc(CCC2(C3CCCC3)CC(=O)CC(=O)O2)cc1F` (stereo not shown) [A(64), 6-cyclopentyl-6-[2-(3-fluoro-4-isopropylphenyl)ethyl]dihydro-2H-pyran-2,4(3H)-dione] the pIC50 was 5.40.
`COc1ccc(CCC2(C3CCCC3)CC(O)=C(C(=O)Cc3cc(C)no3)C(=O)O2)c(OC)c1` (stereo not shown) [B(86), 6-Cyclopentyl-6-[2-(2,4-dimethoxy-phenyl)-ethyl]-4-hydroxy-3-[2-(3-methyl-isoxazol-5-yl)-acetyl]-5,6-dihydro-pyran-2-one] gave a pIC50 of 4.66.
Work on `COc1ccc(CCC2(C3CCCC3)CC(=O)C(Cc3ccccc3)C(=O)O2)cc1` (stereo not shown) [B(77), 3-benzyl-6-cyclopentyl-6-[2-(4-methoxyphenyl)ethyl]dihydro-2H-pyran-2,4(3H)-dione] yielded a pIC50 of 5.26.
With `Cc1cc(C)n2nc(CC3=C(O)CC(CCc4ccc(OC(C)C)cc4)(C4CCCC4)OC3=O)nc2n1` (stereo not shown) [B(34)] the pIC50 was 7.52.
Compound `COC(=O)c1nnc(SC2=C(O)CC(CCc3ccc(OC(C)C)c(F)c3)(C3CCCC3)OC2=O)n1C` (stereo not shown) [C(10), 5-{6-Cyclopentyl-6-[2-(3-fluoro-4-isopropoxy-phenyl)-ethyl]-4-hydroxy-2-oxo-5,6-dihydro-2H-pyran-3-ylsulfanyl}-4-methyl-4H-[1,2,4]triazole-3-carboxylic acid methyl ester] has a pIC50 of 7.80.
For `Cc1cc(C)n2nc(CC3=C(O)CC(CCc4ccc(F)c(Cl)c4)(C4CCCC4)OC3=O)nc2n1` (stereo not shown) [B(19), 6-[2-(3-Chloro-4-fluoro-phenyl)-ethyl]-6-cyclopentyl-3-(5,7-dimethyl-[1,2,4]triazolo[1,5]pyrimidin-2-ylmethyl)-4-hydroxy-5,6-dihydro-pyran-2-one], the pIC50 was 7.22.
Work on `CCc1cc(CCC2(C3CCCC3)CC(O)=C(Cc3nc4ncccn4n3)C(=O)O2)c(OC)cc1O` (single isomer, unassigned) [A(208), 6-cyclopentyl-6-[2-(5-ethyl-4-hydroxy-2-methoxyphenyl)ethyl]-4-hydroxy-3-([1,2,4]triazolo[1,5-a]pyrimidin-2-ylmethyl)-5,6-dihydro-2H-pyran-2-one] yielded a pIC50 of 8.15.
For `CCc1cc(CCC2(C3CCCC3)CC(O)=C(Cc3nc4nc(C)cc(C)n4n3)C(=O)O2)c(OC)cc1O` (single isomer, unassigned; (-)) [A(155), (−)-6-Cyclopentyl-3-(5,7-dimethyl-[1,2,4]triazolo[1,5-a]pyrimidin-2-ylmethyl)-6-[2-(5-ethyl-4-hydroxy-2-methoxy-phenyl)-ethyl]-4-hydroxy-5,6-dihydro-pyran-2-one], the pIC50 was 8.52.
In the case of `CCc1cc(CCC2(C3CCCC3)CC(O)=C(Cc3nc4ncc(C)cn4n3)C(=O)O2)cc(F)c1O` (stereo not shown) [A(125), 6-Cyclopentyl-6-[2-(3-ethyl-5-fluoro-4-hydroxy-phenyl)-ethyl]-4-hydroxy-3-(6-methyl-[1,2,4]triazolo[1,5-a]pyrimidin-2-ylmethyl)-5,6-dihydro-pyran-2-one], the pIC50 was 7.96.
Compound `Cc1cc(C)n2nc(CC3=C(O)CC(CCc4ccc5c(c4)OCCO5)(C4CCCC4)OC3=O)nc2n1` (stereo not shown) [B(36), 6-Cyclopentyl-6-[2-(2,3-dihydro-benzo[1,4]dioxin-6-yl)-ethyl]-3-(5,7-dimethyl-[1,2,4]triazolo[1,5-a]pyrimidin-2-ylmethyl)-4-hydroxy-5,6-dihydro-pyran-2-one] has a pIC50 of 7.38.
In the case of `Cc1cnc2nc(CC3C(=O)CC(CCc4ccc(C5(C#N)CC5)c(F)c4)(C4CCCC4)OC3=O)nn2c1` (stereo not shown) [A(113), 1-(4-{2-[2-Cyclopentyl-5-(6-methyl-[1,2,4]triazolo[1,5-a]pyrimidin-2-ylmethyl)-4,6-dioxo-tetrahydro-pyran-2-yl]-ethyl}-2-fluoro-phenyl)-cyclopropanecarbonitrile], the pIC50 was 8.10.
`CC(C)n1c(SC2=C(O)CC(CCC3CCCC3)(C3CCCC3)OC2=O)nc2cc(Cl)ccc21` (stereo not shown) [C(29), 3-(5-Chloro-1-isopropyl-1H-benzoimidazol-2-ylsulfanyl)-6-cyclopentyl-6-(2-cyclopentyl-ethyl)-4-hydroxy-5,6-dihydro-pyran-2-one] showed a pIC50 of 5.03.
In the case of `CCc1cc(CCC2(C3CCCC3)CC(=O)C(Cc3nc4nc(C)cc(C)n4n3)C(=O)O2)ccc1N(C)S(C)(=O)=O` (stereo not shown) [B(91), 6N-[4-(2-{2-cyclopentyl-5-[(5,7-dimethyl[1,2,4]triazolo[1,5-a]pyrimidin-2-yl)methyl]-4,6-dioxotetrahydro-2H-pyran-2-yl}ethyl)-2-ethylphenyl]-N-methylmethanesulfonamide], the pIC50 was 8.00.
`COC(=O)Nc1cc(CC2=C(O)CC(CCc3ccc(OC)cc3)(C3CCCC3)OC2=O)on1` (stereo not shown) [B(60), Methyl 5-({6-cyclopentyl-4-hydroxy-6-[2-(4-methoxyphenyl)ethyl]-2-oxo-5,6-dihydro-2H-pyran-3-yl}methyl)isoxazol-3-ylcarbamate] was tested, and the pIC50 was 6.27.
Work on `O=C(O)COc1ccc(CCC2(C3CCCC3)CC(=O)CC(=O)O2)cc1Cl` (stereo not shown) [A(54)] yielded a pIC50 of 5.54.
Work on `Cc1cc(C)n2nc(CC3=C(O)CC(CCc4ccc(C5(C#N)CC5)c(Cl)c4)(C4CCCC4)OC3=O)nc2n1` (racemic) [A(201), 1-(2-Chloro-4-{2-[2-cyclopentyl-5-(5,7-dimethyl-[1,2,4]triazolo[1,5a]pyrimidin 2-ylmethyl)-4-hydroxy-6-oxo-3,6-dihydro-2H-pyran-2-yl]-ethyl}-phenyl)-cyclopropanecarbonitrile] yielded a pIC50 of 7.92.
With `COC(=O)C(C)(C)c1ccc(CCC2(C3CCCC3)CC(O)=C(Cc3nc4ncc(C)cn4n3)C(=O)O2)cc1F` (stereo not shown) [A(270), 2-(4-{2-[2-Cyclopentyl-4-hydroxy-5-(6-methyl-[1,2,4]triazolo[1,5-a]pyrimidin-2-ylmethyl)-6-oxo-3,6-dihydro-2H-pyran-2-yl]-ethyl}-2-fluoro-phenyl)-2-methyl-propionic acid methyl ester] the pIC50 was 7.43.
`CCc1cc(CCC2(C3CCCC3)CC(O)=C(Cc3nc4ncc(Cl)cn4n3)C(=O)O2)cc(CC)c1O` (stereo not shown) [A(231), 3-[(6-chloro[1,2,4]triazolo[1,5-a]pyrimidin-2-yl)methyl]-6-cyclopentyl-6-[2-(3,5-diethyl-4-hydroxyphenyl)ethyl]-4-hydroxy-5,6-dihydro-2H-pyran-2-one] was tested, and the pIC50 was 8.22.
In the case of `Cc1cc(C(=O)NCC(C)(C)c2cccc(CCC3(C4CCCC4)CC(=O)CC(=O)O3)c2)oc1C` (stereo not shown) [A(73), 4,5-Dimethyl-furan-2-carboxylic acid (2-{3-[2-(2-cyclopentyl-4,6-dioxo-tetrahydro-pyran-2-yl)-ethyl]-phenyl}-2-methyl-propyl)-amide], the pIC50 was 5.48.
`Cc1ccc(C#CCCC2(C3CCCC3)CC(=O)CC(=O)O2)cc1` (stereo not shown) [F(6), 6-Cyclopentyl-6-(4-p-tolyl-but-3-ynyl)-dihydro-pyran-2,4-dione] showed a pIC50 of 4.08.
For `Cc1cc(C)n2nc(CC3=C(O)CC(CCc4ccc(O)c(CC(F)(F)F)c4)(C4CCCC4)OC3=O)nc2n1` (stereo not shown) [A(225), 6-cyclopentyl-3-[(5,7-dimethyl[1,2,4]triazolo[1,5-a]pyrimidin-2-yl)methyl]-4-hydroxy-6-{2-[4-hydroxy-3-(2,2,2-trifluoroethyl)phenyl]ethyl}-5,6-dihydro-2H-pyran-2-one], the pIC50 was 8.52.
`O=C1OC(CCCC2CCCCC2)(C2CCCC2)CC(O)=C1Sc1nnc(-c2ccncc2)[nH]1` (stereo not shown) [C(30), 6-(3-Cyclohexyl-propyl)-6-cyclopentyl-4-hydroxy-3-(5-pyridin-4-yl-4H-[1,2,4]triazol-3-ylsulfanyl)-5,6-dihydro-pyran-2-one] showed a pIC50 of 6.26.
`Cc1cc(C)n2nc(SC3=C(O)CC(CCc4ccc(-c5c(C)noc5C)cc4)(C4CCCC4)OC3=O)nc2n1` (stereo not shown) [C(13), 6-Cyclopentyl-6-{2-[4-(3,5-dimethyl-isoxazol-4-yl)-phenyl]-ethyl}-3-(5,7-dimethyl-[1,2,4]triazolo[1,5-a]pyrimidin-2-ylsulfanyl)-4-hydroxy-5,6-dihydro-pyran-2-one] showed a pIC50 of 7.80.
Compound `N#Cc1cccc(-c2ccc(CCC3(C4CCCC4)CC(=O)CC(=O)O3)cc2)c1` (stereo not shown) [A(45), 4′-[2-(2-Cyclopentyl-4,6-dioxo-tetrahydro-pyran-2-yl)-ethyl]-biphenyl-3-carbonitrile] has a pIC50 of 4.52.
In the case of `CNC(=O)N[C@H](C)c1ccc(CCC2(C3CCCC3)CC(=O)CC(=O)O2)cc1` (stereo partly shown) [A(41), 1-(1-{4-[2-(2-Cyclopentyl-4,6-dioxo-tetrahydro-pyran-2-yl)-ethyl]-phenyl}-ethyl)-3-methyl-urea], the pIC50 was 4.89.
`N#CCc1cccc(C#CC2(C3CCCC3)CC(=O)CC(=O)O2)c1` (stereo not shown) [E(3), [3-(2-Cyclopentyl-4,6-dioxo-tetrahydro-pyran-2-ylethynyl)-phenyl]-acetonitrile] showed a pIC50 of 4.19.
With `COc1ccc(CCC2(C3CCCC3)CC(O)=C(Cc3cccc(C#N)c3)C(=O)O2)cc1Cl` (stereo not shown) [B(23), 3-{6-[2-(3-Chloro-4-methoxy-phenyl)-ethyl]-6-cyclopentyl-4-hydroxy-2-oxo-5,6-dihydro-2-pyran-3-ylmethyl}-benzonitrile] the pIC50 was 6.06.
